From the NIST ThermoML archive (doi:10.1021/je800150h)
± gives the expanded uncertainty stated by the source.

Conditions: 101 kPa, Liquid

CCO [ethanol]
Conditions | mass density [kg/m3] | viscosity [mPa·s]
268.1 K | 811.1 ± 3.8 | 1.975 ± 0.093
273.1 K | 806.8 ± 3.6 | 1.775 ± 0.084
278.1 K | 802.6 ± 3.4 | 1.629 ± 0.077
283.1 K | 798.4 ± 3.1 | 1.468 ± 0.07
288.15 K | 794.2 ± 2.9 | 1.341 ± 0.065
293.15 K | 789.9 ± 2.7 | 1.207 ± 0.059
298.15 K | 785.7 ± 2.9 | 1.105 ± 0.054
303.15 K | 781.4 ± 3.1 | 1.01 ± 0.05
308.15 K | 777.1 ± 3.2 | 0.92 ± 0.046
313.15 K | 772.8 ± 3.4 | 0.84 ± 0.043
318.15 K | 767.9 ± 3.6 | 0.772 ± 0.04
323.15 K | 763.4 ± 3.7 | 0.713 ± 0.037

O [water]
Conditions | mass density [kg/m3] | viscosity [mPa·s]
278.1 K | 999.9 ± 4.4 | 1.519 ± 0.072
283.1 K | 999.7 ± 4.2 | 1.308 ± 0.063
288.15 K | – | 1.14 ± 0.056
293.15 K | – | 1.005 ± 0.05
298.15 K | – | 0.894 ± 0.045
303.15 K | – | 0.799 ± 0.041
308.15 K | 994.1 ± 4.3 | 0.723 ± 0.038
313.15 K | – | 0.655 ± 0.035
318.15 K | – | 0.599 ± 0.032
323.15 K | – | 0.548 ± 0.03
